Data published in the NIST ThermoML archive (doi:10.1016/j.fluid.2017.10.034).

Assay: xn = mol fraction of the nth substance listed
Conditions: Liquid, Vibrating tube method

[Cl-].[Cs+] [cesium chloride] + CO
mass density [kg/m3]
Conditions	288.15 K	293.15 K	298.15 K	308.15 K	318.15 K
x1 = 0.0012	800.8	796.1	791.3	781.8	772.3
x1 = 0.0025	805.5	800.8	796	786.5	776.9
x1 = 0.0037	809.9	805.2	800.5	791	781.4
x1 = 0.0049	814.5	809.8	805.1	795.5	785.9

[Cl-].[Cs+] [cesium chloride] + O
mass density [kg/m3]
Conditions	x1 = 0.0099	x1 = 0.0196	x1 = 0.0292	x1 = 0.0385	x1 = 0.0536	x1 = 0.069
288.15 K	1069.7	1137.3	1203.3	1266.2	1367	1466.9
293.15 K	1068.4	1135.8	1201.6	1264.2	1364.6	1464.1
298.15 K	1067	1134.1	1199.6	1262	1362.1	1461.3
308.15 K	1063.5	1130.1	1195.2	1257.3	1356.7	1455.3
318.15 K	1059.2	1125.5	1190.2	1252	1350.9	1448.6

[Cl-].[Na+] [sodium chloride] + CO
mass density [kg/m3]
Conditions	x1 = 0.001	x1 = 0.002	x1 = 0.003	x1 = 0.004	x1 = 0.005	x1 = 0.006	x1 = 0.007
288.15 K	797.4	798.9	800.1	801.4	802.9	804.1	805.7
293.15 K	792.7	794.3	795.5	796.8	798.3	799.5	801.1
298.15 K	788	789.6	790.8	792.1	793.7	794.9	796.4
308.15 K	778.6	780.2	781.4	782.7	784.3	785.5	787.1
318.15 K	769	770.7	771.9	773.3	774.8	776.1	777.7

[Cl-].[Na+] [sodium chloride] + O
mass density [kg/m3]
Conditions	x1 = 0.0099	x1 = 0.0196	x1 = 0.0291	x1 = 0.0385	x1 = 0.0476	x1 = 0.0566	x1 = 0.0654
288.15 K	1022.2	1044.7	1065.8	1086.7	1107.4	1127.2	1147.1
293.15 K	1021	1043.2	1064.1	1084.8	1105.4	1125	1144.8
298.15 K	–	1041.6	1062.3	1082.8	1103.3	1122.7	1142.4
308.15 K	1016.2	1037.8	1058.2	1078.5	1098.7	1118	1137.4
318.15 K	1012.1	1033.5	1053.6	1073.7	1093.8	1112.9	1132.2
